Laboratory results reported in patent US20200199097A1, “POMALIDOMIDE DERIVATIVE AND PREPARATION METHOD THEREFOR” (NANJING NORATECH PARMACEUTICALS CO., LTD, priority 2017, published 2020).
≈ marks a conversion by molar mass, not a printed value. Where a name gives a salt, the structure may show the parent alone. Read-outs that look alike come from different tables or passages of the source.

Tests used:
[1] = cited from earlier work
[2] = Determination of solubility in water at room temperature by HPLC; type: physicochemical; details: saturated solubility not determined; for solubility: thermodynamic from solid, read-out: Minimum solubility in water at room temperature
Method: 1 mg of compound 1 was mixed with 1 mL of water, stirred at room temperature, and completely dissolved, and the supernatant was taken as a test sample solution.
50 mg of the hydrochloride or tromethamine salt of the compound was mixed with 150 μl of water, stirred at room temperature, and completely dissolved, and the supernatant was taken as a test sample solution.
In this test, the saturated solubility of the sample is not determined, but an appropriate amount of the sample is selected to determine the solubility of the sample. […] However, the solubility of pomalidomide in water is about 0.01 mg/ml, which is much lower than the solubility of the compound of the present invention or the salt thereof.

[3] = Determination of stability under different environmental conditions; type: physicochemical
Method: An appropriate amount of the sample was independently placed under different environmental conditions, and the percentage of the sample at day 0, 5, 10 or 30 was determined to evaluate the stability of the sample.

Question: Which solubility ([1]; 0.1 mol/L hydrochloric acid) does the source give for `Nc1cccc2c1C(=O)N(C1CCC(=O)NC1=O)C2=O` (centres unmarked) [Pomalidomide] here?
Answer: Its solubility is 0.0189 mg/mL (≈ 69.2 µM).

Question: What about the solubility ([1]; acetate buffer (pH 4.5)) of the same compound?
Answer: The solubility was 0.0187 mg/mL (≈ 68.4 µM).

Question: What about the solubility ([1]; phosphate buffer (pH 6.8)) of the same compound?
Answer: Its solubility is 0.017 mg/mL (≈ 62.2 µM).

Question: What about the solubility ([1]; purified water) of the same compound?
Answer: Its solubility is 0.0178 mg/mL (≈ 65.1 µM).

Question: And the “solubility of pomalidomide in water” value ([1]; water)?
Answer: Its value is “about 0.01 mg/ml”.

Question: With `Nc1cccc2c1C(=O)N(C1CCC(=O)N(COC(=O)[C@@H]3CCCN3)C1=O)C2=O` (some centres unmarked) [Hydrochloride salt of compound 6] as the compound, how does the solubility [2] read?
Answer: The solubility was greater than 300 mg/mL.

Question: With `CC(C)[C@H](N)C(=O)OCN1C(=O)CCC(N2C(=O)c3cccc(N)c3C2=O)C1=O` (some centres unmarked) [Compound 1] as the compound, how does the “Minimum solubility in water at room temperature” value [2] read?
Answer: The value was 1 mg/mL.

Question: With `CC(C)[C@H](N)C(=O)OCN1C(=O)CCC(N2C(=O)c3cccc(N)c3C2=O)C1=O` (some centres unmarked) [Hydrochloride salt of compound 1] as the compound, how does the “Minimum solubility in water at room temperature” value [2] read?
Answer: Its value is greater than 300 mg/mL.

Question: And the “percentage of the sample” value ([3]; Day 0)?
Answer: Its value is 97.1%.

Question: And the “percentage of the sample” value ([3]; Day 10/40° C./60% RH/Dark)?
Answer: Its value is 96.9%.

Question: And the “percentage of the sample” value ([3]; Day 10/60° C./75% RH/Dark)?
Answer: Its value is 96.4%.

Question: And the “percentage of the sample” value ([3]; Day 10/Light)?
Answer: Its value is 96.7%.

Question: And the “percentage of the sample” value ([3]; Day 10/RT/75% RH/Dark)?
Answer: The value was 96.8%.

Question: What about the “percentage of the sample” value ([3]; Day 10/RT/92.5% RH/Dark) of the same compound?
Answer: Its value is 95.5%.

Question: What about the “percentage of the sample” value ([3]; Day 30/40° C./60% RH/Dark) of the same compound?
Answer: Its value is 95.1%.

Question: And the “percentage of the sample” value ([3]; Day 30/60° C./75% RH/Dark)?
Answer: Its value is 94.7%.

Question: What about the “percentage of the sample” value ([3]; Day 30/Light) of the same compound?
Answer: The value was 95.0%.

Question: What about the “percentage of the sample” value ([3]; Day 30/RT/75% RH/Dark) of the same compound?
Answer: Its value is 96.1%.

Question: What about the “percentage of the sample” value ([3]; Day 30/RT/92.5% RH/Dark) of the same compound?
Answer: Its value is 93.3%.

Question: What does the source list for `NCC(=O)OCN1C(=O)CCC(N2C(=O)c3cccc(N)c3C2=O)C1=O` (centres unmarked) [Hydrochloride salt of compound 2]?
Answer: solubility [2]: > 300 mg/mL; percentage of the sample ([3]; Day 0): 96.1%; percentage of the sample ([3]; Day 10/40° C./60% RH/Dark): 43.5%; percentage of the sample ([3]; Day 10/60° C./75% RH/Dark): 13.3%; percentage of the sample ([3]; Day 10/RT/92.5% RH/Dark): 93.3%

Question: For `Nc1cccc2c1C(=O)N(C1CCC(=O)N(COP(=O)(O)O)C1=O)C2=O` (centres unmarked) [Ditromethamine salt of compound 11], which solubility [2] is on record?
Answer: The solubility was greater than 300 mg/mL.

Question: What about the “percentage of the sample” value ([3]; Day 0) of the same compound?
Answer: The value was 99.9%.

Question: What about the “percentage of the sample” value ([3]; Day 5/40° C./60% RH/Dark) of the same compound?
Answer: The value was 92.8%.

Question: And the “percentage of the sample” value ([3]; Day 5/60° C./75% RH/Dark)?
Answer: The value was 15.6%.

Question: And the “percentage of the sample” value ([3]; Day 5/Light)?
Answer: Its value is 99.5%.

Question: And the “percentage of the sample” value ([3]; Day 5/RT/75% RH/Dark)?
Answer: Its value is 79.8%.

Question: What about the “percentage of the sample” value ([3]; Day 5/RT/92.5% RH/Dark) of the same compound?
Answer: Its value is 78.4%.

Question: With `CC[C@H](C)[C@H](N)C(=O)OCN1C(=O)CCC(N2C(=O)c3cccc(N)c3C2=O)C1=O` (some centres unmarked) [Hydrochloride salt of compound 5] as the compound, how does the solubility [2] read?
Answer: The solubility was greater than 300 mg/mL.

Question: For `CC(C)C[C@H](N)C(=O)OCN1C(=O)CCC(N2C(=O)c3cccc(N)c3C2=O)C1=O` (some centres unmarked) [Hydrochloride salt of compound 4], which solubility [2] is on record?
Answer: The solubility was greater than 300 mg/mL.

Question: For `C[C@H](N)C(=O)OCN1C(=O)CCC(N2C(=O)c3cccc(N)c3C2=O)C1=O` (some centres unmarked) [Hydrochloride salt of compound 3], which solubility [2] is on record?
Answer: The solubility was greater than 300 mg/mL.

Question: For `Nc1cccc2c1C(=O)N(C1CCC(=O)N(COC(=O)[C@@H](N)Cc3ccccc3)C1=O)C2=O` (some centres unmarked) [Hydrochloride salt of compound 7], which solubility [2] is on record?
Answer: The solubility was greater than 300 mg/mL.
